PMC11404609, “Gut microbiota-mediated C-sulfonate metabolism impairs the bioavailability and anti-cholestatic efficacy of andrographolide” (Gut Microbes, 2024)

Tests used:
[1] = Tissue distribution of AP and APM in rats; format: in vivo; conditions: ABX-treated rats vs Control, AP 120 mg/kg oral
Description: Control and ABX rats were orally administered a single dose of AP at 120 mg/kg. Control, ABX and germ-free C57BL/6J mice were orally administered a single dose of AP at 100 mg/kg. After 90 min of AP administration, all animals were euthanized, and blood and tissue samples were collected for subsequent analysis.
An ACQUITY^TM UPLC-MS/MS system equipped with an ACQUITY^TM UPLC BEH C18 Column (50 × 2.1 mm I.D., 1.7 μm, Waters, Milford, MA, USA) was utilized for the quantification of AP and APM as previously described.[47] Briefly, the detection samples (50 μL) were mixed with 50 μL of IS (50 ng/mL). AP and APM were extracted by 400 μL cold methanol. Supernatants were dried under nitrogen stream. Then, the residue was dissolved with 50% methanol in water, centrifuged for 30 min at 13,000 rpm, and 10 µL of the supernatant was subjected to UPLC-MS/MS analysis. The mobile phases consisted of eluent A (water) and eluent B (methanol) with a gradient elution as follows: 0–0.8 min, 10% B; 0.8–1.2 min, 10–90% B; 1.2–5.0 min, 90% B; 5.0–5.5 min, 90–10% B; 5.5–7.0 min, 10% B. The flow rate was 0.3 mL/min and the injection volume of all samples was 10 μL. The quantification of AP, APM and IS was performed by UPLC-MS/MS using an MRM method with the transitions of m/z 349.1→m/z 287.2 for AP, m/z 413.2→m/z 287.2 for APM, m/z 269→m/z 133 for IS.
AP was administered intravenously and orally to detect the production of the C-sulfonate metabolite APM. In tissue distribution experiment, rats were given AP intravenously (24 mg/kg) or orally (120 mg/kg), while mice received AP intravenously (20 mg/kg) or orally (100 mg/kg). After a 90-minute interval, the animals were sacrificed, and their liver, kidneys, small intestine, and colon were collected for analysis. In pharmacokinetic studies, rats were administered 24 mg/kg of AP intravenously or 120 mg/kg of AP by oral gavage. Blood samples were collected at predetermined time intervals (0, 5, 10, 20, 30, 40, 60, 90, 120, 180, 240, 360, and 480 min), as described, to detect the content of AP and APM by UPLC-MS/MS.

intestinal flora of mice = test: Co-culturing AP with cecum samples from mice; format: in vitro ADME; conditions: AP 10 μg/mL, anaerobic, 37°C, 6 h
Description: The cecum contents from mice were collected and mixed with sterilized anaerobic medium in a ratio of 1.0 g to 10 mL, with gentle agitation. After filtered, the mixed medium containing the intestinal flora was placed in an anaerobic environment and preincubated at 37°C for 30 min before use. Mixed medium with or without APS reductase inhibitor bromocriptine mesylate (20 μg/mL) was incubated with AP (10 μg/mL), while autoclaved mixed medium without APS reductase inhibitor served as the control. Incubation was performed in a shaking incubator at 37°C for 6 h, with strict maintenance of anaerobic condition throughout the process.[44] Similarly, D. piger (0.2 mL, 1 × 10^8 CFU/mL) with or without inhibitor, was incubated with AP for 0, 3, 6, and 12 h, with autoclaved D. piger without inhibitor serving as the control. The reaction was terminated by adding cold methanol contained IS. And then samples were analyzed by UPLC-MS/MS to detect the concentrations of AP and APM. Concentrations of APS reductase and HSO3^− were also determined at the end of incubation.
For the determination of APS reductase concentration, the supernatant from mouse cecum contents and the D. piger strain were assessed using microorganism APS reductase elisa assay kit (Shanghai Senxingyan Biotechnology Co., Ltd., China), following the instructions provided with the kit. For the determination of HSO3^− concentration, cecum contents from mice or rats were weighed and homogenized in five volumes of normal saline (based on tissue weight). The homogenate was then subjected to centrifugation at 13,000 rpm and 4°C for 15 min. The supernatant (or perfusate) was collected and mixed with 0.2% formaldehyde, 0.05% basic fuchsin, and 0.01% EDTA-Na2 in a ratio of 1:1:1:9 under acidic conditions. To establish a standard curve, different concentrations of NaHSO3 were used. Subsequently, the absorbance of the resulting solutions was measured at a wavelength of 560 nm after 40 min.

[2] = In-situ single-pass intestinal perfusion of AP; format: in vivo; conditions: rats, AP 20 μM co-perfused with Na2SO4 40 μM vs AP alone
Description: The rat intestinal perfusion experiment was conducted based on previous literature reports^6, 7. The experimental animals were divided into two groups: Control and SO4^2- groups. Rats were anaesthetised via the intraperitoneal injection of 50% urethane at a dose of 2.4 mL/kg. Two segments of the intestine, specifically the duodenum and jejunum, each measuring 5-10 cm in length, were cannulated simultaneously. The primary tube was affixed to a syringe controlled by an infusion pump (Model PHD2000 Harvard Apparatus, Cambridge, Massachusetts). The inlet cannula was insulated and maintained in a constant temperature of 37°C in circulating water bath to ensure the perfusate’s thermal stability. Following the surgical procedure, the two segments of Control group were perfused with 20 μM AP, and the two segments of SO4^2- group were co-perfused with AP (20 μM) and Na2SO4 (40 μM). The perfusion was conducted at the flow rate of 0.17 mL/min and perfusate samples were collected every 15 min (15, 30, 45, 60, 75, and 90 min). The concentrations of AP and APM in the perfusate at the outlet were determined through UPLC-MS/MS analysis.

gut microbiota = test: Shotgun metagenomic sequencing of cecum samples after AP treatment; format: in vivo; conditions: mice cecum, AP 400 mg/kg, oral, 14 d
Description: Shotgun metagenomic sequencing was performed using cecum samples from mice after AP treatment (400 mg/kg, oral, 14 d). DNA was extracted by a PF Mag-Bind DNA Kit (Omega Bio-tek, USA) and qualified by 1% Agarose gel electrophoresis. Extracted DNA was fragmented by Covaris M220 (Gene Company Limited, China) and screened at approximately 400 bp fragments for paired-end library construction. NEXTFLEX® Rapid DNA-Seq (Bioo Scientific, USA) was used to build paired-end library construction. The Illumina NovaSeq 6000 (Illumina, USA) sequencing platform was used for metagenomic sequencing. Fastp was used to perform quality cropping on the adapter sequences of the 3’ and 5’ ends of reads, preserving high-quality paired-end reads and single-end reads. BWA (version 0.7.17) was used to construct the reads with the host DNA sequence and remove contaminated reads with high alignment similarity. MEGAHIT (version 1.1.2) was used to splice and assemble the optimized sequence. SOAP aligner (version soap2.21release) was used to compare the high-quality reads of each sample with the non-redundant gene set (95% identity) and calculate the abundance information of genes in the corresponding samples. DIAMOND (version 2.0.11) was used to annotate species taxonomy, and KEGG function. Data was deposited into the NCBI Sequence Read Archive (SRA) database.

With `C=C1CC[C@@H]2[C@](C)(CO)[C@H](O)CC[C@@]2(C)[C@@H]1C/C=C1/C(=O)OC[C@H]1O` [AP, Andrographolide] the “levels of AP in plasma and tissues” value [1] was “elevated levels”, the “conversion of AP into APM by the intestinal flora” value (intestinal flora of mice) was “notable conversion” and the “AP C-sulfonate metabolism” value [2] was “substantial increase”. The “expression of APS reductase / growth of APS reductase-producing gut microbiota” value (gut microbiota) was “did not induce significant alterations” and the “expression of Enterococcus, Lactobacillus, and Escherichia bacteria” value (gut microbiota) was “did not suppress”.
